Measurements published in patent US20240269139A1, “COMPOUNDS FOR TARGETED PROTEIN DEGRADATION OF KINASES” (DANA-FARBER CANCER INSTITUTE, INC., priority 2020, published 2024).
Read-outs that look alike come from different tables or passages of the source.

Assays:
Format in all cases: cell-based
[1] = target: T1, protein kinases (human kinome) (Homo sapiens, UniProt Q9UQ88); conditions: experiment wp105
T1 sequence (Q9UQ88 1-783): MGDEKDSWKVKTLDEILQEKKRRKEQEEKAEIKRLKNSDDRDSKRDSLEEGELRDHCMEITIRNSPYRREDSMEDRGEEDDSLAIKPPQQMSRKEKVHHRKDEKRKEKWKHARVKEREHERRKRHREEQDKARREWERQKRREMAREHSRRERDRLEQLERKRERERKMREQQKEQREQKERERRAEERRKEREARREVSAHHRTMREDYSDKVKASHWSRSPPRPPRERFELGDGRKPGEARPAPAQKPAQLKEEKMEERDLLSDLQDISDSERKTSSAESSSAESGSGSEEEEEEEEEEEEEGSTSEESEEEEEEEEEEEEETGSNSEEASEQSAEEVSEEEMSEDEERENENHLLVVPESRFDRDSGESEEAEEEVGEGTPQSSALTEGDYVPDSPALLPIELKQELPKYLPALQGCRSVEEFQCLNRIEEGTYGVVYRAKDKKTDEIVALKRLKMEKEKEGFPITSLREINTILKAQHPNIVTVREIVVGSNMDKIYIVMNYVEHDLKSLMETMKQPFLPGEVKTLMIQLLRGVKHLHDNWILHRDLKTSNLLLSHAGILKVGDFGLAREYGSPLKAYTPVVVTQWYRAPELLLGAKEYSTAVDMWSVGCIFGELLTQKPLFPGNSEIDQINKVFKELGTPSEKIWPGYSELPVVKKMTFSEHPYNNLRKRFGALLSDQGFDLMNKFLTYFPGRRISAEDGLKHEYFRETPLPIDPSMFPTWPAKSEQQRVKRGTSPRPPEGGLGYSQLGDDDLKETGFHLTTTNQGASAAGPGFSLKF

[2] = target: T2, protein kinases (human kinome) (Homo sapiens, UniProt P78356); conditions: PIP4K2B (P78356)
T2 sequence (P78356 1-416): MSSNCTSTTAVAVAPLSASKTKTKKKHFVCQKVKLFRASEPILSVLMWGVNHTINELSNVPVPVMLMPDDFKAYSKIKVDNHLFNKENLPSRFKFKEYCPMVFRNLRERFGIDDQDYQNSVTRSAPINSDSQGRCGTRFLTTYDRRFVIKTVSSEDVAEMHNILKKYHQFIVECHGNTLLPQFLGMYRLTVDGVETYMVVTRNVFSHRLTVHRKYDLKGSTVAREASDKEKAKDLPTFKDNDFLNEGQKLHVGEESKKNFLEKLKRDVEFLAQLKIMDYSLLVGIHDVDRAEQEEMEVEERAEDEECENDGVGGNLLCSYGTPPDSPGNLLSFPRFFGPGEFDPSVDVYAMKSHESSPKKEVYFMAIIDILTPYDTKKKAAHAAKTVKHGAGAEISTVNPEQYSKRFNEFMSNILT

[3] = target: protein kinases (human kinome) (Homo sapiens, UniProt P41743); conditions: experiment wp056
[4] = target: protein kinases (human kinome) (Homo sapiens, UniProt Q8TF76); conditions: experiment wp137
[5] = target: protein kinases (human kinome) (Homo sapiens, UniProt Q8IW41); conditions: experiment wp080
[6] = target: protein kinases (human kinome) (Homo sapiens, UniProt P48736)
[7] = target: protein kinases (human kinome) (Homo sapiens, UniProt Q86Z02); conditions: experiment wp133, 4 hr
[8] = target: protein kinases (human kinome) (Homo sapiens, UniProt Q96RU7)
[9] = target: protein kinases (human kinome) (Homo sapiens, UniProt Q13131); conditions: for logFC PRKAA1 (Q13131): direction down
[10] = target: protein kinases (human kinome) (Homo sapiens, UniProt Q96QT4); conditions: experiment wp107
[11] = target: protein kinases (human kinome) (Homo sapiens, UniProt Q86UX6)
[12] = target: protein kinases (human kinome) (Homo sapiens, UniProt Q99640); conditions: experiment wp131
[13] = Experiment wp114, direction of change down

Sequence of protein kinases (human kinome) (Homo sapiens, UniProt Q13131) (Q13131 whole entry): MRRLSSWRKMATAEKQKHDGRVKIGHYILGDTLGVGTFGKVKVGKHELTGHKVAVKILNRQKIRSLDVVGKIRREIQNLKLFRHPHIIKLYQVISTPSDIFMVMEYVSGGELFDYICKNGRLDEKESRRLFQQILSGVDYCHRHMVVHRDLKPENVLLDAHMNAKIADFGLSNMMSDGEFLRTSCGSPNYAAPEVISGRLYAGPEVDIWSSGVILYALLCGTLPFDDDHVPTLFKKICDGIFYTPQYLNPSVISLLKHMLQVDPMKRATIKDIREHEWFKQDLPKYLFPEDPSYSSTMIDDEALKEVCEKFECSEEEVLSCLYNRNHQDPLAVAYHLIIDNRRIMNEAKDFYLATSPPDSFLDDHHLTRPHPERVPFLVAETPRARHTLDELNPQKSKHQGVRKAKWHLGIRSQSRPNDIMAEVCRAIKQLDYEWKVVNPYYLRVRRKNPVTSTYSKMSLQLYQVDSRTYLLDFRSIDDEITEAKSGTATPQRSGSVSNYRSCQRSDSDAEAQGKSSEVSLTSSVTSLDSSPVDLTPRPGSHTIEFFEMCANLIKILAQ
Sequence of protein kinases (human kinome) (Homo sapiens, UniProt Q8TF76) (Q8TF76 whole entry): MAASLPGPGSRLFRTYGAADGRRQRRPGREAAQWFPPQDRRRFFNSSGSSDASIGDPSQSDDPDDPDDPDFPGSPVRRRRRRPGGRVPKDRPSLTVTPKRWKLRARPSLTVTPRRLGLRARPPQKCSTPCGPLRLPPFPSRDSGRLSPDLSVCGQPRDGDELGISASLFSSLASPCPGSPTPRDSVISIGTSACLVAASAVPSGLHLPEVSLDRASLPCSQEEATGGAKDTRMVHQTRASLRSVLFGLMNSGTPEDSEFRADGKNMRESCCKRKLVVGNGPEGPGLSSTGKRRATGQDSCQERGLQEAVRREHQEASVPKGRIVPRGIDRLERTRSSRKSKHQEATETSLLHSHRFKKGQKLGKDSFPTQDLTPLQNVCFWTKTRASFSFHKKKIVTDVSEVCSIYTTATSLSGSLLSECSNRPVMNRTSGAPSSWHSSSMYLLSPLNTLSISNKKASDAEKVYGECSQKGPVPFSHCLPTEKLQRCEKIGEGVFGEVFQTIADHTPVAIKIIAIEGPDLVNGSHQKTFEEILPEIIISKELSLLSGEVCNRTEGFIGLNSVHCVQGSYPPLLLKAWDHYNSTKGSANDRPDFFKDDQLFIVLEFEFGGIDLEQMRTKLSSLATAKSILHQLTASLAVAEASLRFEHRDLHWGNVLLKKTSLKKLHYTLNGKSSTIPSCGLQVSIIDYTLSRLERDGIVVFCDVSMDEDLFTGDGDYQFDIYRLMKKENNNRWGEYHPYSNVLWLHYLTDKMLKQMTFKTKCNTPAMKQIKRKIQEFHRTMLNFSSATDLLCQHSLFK
Sequence of protein kinases (human kinome) (Homo sapiens, UniProt Q99640) (Q99640 whole entry): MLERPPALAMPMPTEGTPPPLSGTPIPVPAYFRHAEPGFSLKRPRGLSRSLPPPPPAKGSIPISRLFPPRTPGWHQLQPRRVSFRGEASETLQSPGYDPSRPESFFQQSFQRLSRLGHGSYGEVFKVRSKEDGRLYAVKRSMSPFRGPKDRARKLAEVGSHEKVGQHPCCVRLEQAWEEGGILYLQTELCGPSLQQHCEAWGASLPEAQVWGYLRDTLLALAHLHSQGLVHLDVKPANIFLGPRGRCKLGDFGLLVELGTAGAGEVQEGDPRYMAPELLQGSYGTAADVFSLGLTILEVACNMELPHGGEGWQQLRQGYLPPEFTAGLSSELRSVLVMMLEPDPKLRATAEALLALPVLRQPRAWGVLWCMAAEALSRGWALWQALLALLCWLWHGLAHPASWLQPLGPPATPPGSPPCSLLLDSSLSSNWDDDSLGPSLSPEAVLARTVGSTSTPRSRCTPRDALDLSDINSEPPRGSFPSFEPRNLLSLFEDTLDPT
Sequence of protein kinases (human kinome) (Homo sapiens, UniProt Q86UX6) (Q86UX6 whole entry): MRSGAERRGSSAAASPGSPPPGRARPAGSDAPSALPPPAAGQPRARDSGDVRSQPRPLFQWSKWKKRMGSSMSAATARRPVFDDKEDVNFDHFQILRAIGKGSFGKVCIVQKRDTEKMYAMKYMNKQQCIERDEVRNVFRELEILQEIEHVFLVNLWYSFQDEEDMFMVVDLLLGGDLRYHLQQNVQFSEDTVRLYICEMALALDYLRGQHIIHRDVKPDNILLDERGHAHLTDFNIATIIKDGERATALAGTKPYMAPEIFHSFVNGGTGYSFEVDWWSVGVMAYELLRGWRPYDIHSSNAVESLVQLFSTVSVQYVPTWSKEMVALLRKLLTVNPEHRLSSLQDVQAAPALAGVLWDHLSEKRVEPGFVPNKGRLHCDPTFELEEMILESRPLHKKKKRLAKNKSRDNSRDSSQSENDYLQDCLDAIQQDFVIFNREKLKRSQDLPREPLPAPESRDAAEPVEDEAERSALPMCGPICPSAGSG
Sequence of protein kinases (human kinome) (Homo sapiens, UniProt Q8IW41) (Q8IW41 whole entry): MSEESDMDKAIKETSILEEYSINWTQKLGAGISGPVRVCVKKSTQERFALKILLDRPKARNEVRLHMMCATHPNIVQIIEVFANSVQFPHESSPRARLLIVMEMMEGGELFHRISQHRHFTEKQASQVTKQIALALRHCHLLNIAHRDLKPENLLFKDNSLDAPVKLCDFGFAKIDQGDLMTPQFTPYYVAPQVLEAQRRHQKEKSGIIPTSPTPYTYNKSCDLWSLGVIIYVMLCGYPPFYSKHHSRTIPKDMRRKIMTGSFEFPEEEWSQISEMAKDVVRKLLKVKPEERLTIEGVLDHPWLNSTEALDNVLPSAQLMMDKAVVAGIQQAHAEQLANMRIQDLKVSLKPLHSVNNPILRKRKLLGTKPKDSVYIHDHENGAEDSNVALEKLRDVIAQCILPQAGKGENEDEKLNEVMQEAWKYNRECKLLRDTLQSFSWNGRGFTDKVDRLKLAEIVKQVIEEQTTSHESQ
Sequence of protein kinases (human kinome) (Homo sapiens, UniProt Q96QT4) (Q96QT4 whole entry): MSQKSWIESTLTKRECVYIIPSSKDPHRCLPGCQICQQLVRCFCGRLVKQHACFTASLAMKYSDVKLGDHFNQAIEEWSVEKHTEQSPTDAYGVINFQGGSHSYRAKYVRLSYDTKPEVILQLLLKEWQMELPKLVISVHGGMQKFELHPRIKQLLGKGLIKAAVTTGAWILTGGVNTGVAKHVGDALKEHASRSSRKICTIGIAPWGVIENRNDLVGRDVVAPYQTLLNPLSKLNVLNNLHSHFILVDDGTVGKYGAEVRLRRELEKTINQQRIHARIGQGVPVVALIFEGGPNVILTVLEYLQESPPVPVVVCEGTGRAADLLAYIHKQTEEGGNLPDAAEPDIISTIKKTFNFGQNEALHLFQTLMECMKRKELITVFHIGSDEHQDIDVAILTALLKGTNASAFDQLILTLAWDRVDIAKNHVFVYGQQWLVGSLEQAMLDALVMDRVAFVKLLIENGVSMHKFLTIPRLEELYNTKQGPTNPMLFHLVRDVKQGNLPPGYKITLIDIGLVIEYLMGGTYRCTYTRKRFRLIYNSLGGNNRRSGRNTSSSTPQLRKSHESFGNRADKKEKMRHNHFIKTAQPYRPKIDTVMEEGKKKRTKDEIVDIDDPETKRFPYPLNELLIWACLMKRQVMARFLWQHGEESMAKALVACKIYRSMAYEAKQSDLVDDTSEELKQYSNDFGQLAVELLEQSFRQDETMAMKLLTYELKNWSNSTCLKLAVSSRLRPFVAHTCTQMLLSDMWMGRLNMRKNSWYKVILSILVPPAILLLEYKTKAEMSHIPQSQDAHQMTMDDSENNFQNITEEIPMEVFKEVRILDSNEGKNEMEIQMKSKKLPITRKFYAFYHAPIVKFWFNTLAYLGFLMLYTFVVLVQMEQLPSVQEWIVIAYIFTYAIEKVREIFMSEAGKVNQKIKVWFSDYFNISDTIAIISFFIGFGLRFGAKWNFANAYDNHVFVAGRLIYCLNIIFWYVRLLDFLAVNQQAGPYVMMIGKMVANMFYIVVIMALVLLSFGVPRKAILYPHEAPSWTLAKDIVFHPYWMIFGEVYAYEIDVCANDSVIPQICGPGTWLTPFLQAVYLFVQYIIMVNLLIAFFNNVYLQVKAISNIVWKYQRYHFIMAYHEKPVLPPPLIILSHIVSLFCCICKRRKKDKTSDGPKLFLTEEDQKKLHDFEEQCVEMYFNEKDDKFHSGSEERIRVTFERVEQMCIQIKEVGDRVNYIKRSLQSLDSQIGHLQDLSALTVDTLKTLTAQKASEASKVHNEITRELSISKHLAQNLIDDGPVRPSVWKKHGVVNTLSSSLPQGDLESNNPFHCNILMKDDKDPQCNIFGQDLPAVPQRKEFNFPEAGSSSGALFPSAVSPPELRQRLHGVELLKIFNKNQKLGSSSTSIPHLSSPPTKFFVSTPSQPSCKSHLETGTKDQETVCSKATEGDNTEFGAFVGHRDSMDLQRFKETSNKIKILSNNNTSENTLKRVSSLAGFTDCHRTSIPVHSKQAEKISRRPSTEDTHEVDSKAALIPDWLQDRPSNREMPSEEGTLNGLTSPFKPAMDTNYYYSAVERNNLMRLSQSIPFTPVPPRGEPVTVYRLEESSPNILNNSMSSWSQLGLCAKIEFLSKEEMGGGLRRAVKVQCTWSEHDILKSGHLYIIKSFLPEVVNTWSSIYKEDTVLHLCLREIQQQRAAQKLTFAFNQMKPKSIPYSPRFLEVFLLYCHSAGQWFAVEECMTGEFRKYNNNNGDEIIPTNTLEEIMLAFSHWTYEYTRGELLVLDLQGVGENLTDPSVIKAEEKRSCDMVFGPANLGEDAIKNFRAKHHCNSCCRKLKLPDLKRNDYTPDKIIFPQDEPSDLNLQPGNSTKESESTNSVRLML
Sequence of protein kinases (human kinome) (Homo sapiens, UniProt Q96RU7) (Q96RU7 whole entry): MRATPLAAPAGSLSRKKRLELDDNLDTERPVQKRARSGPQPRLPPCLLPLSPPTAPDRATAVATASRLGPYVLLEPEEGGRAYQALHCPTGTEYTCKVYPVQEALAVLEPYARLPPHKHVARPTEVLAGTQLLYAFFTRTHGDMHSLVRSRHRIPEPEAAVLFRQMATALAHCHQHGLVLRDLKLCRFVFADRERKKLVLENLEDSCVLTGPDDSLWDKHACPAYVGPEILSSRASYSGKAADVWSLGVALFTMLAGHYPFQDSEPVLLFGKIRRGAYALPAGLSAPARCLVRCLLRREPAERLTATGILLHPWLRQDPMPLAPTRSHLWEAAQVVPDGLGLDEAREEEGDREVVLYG

For `Cc1ccc(NC(=O)c2cccc(C(F)(F)F)c2)cc1N1Cc2cnc(Nc3ccc(N4CCN(Cc5cn(CCCCCOc6cccc7c6C(=O)N(C6CCC(=O)NC6=O)C7=O)nn5)CC4)nc3)nc2N(C)C1=O` (stereo not drawn) [DB0646, N-(3-(7-((6-(4-((1-(5-((2-(2,6-Dioxopiperidin-3-yl)-1,3-dioxoisoindolin-4-yl)oxy)pentyl)-1H-1,2,3-triazol-4-yl)methyl)piperazin-1-v)pyridin-3-yl)amino)-1-methyl-2-oxo-1,4-dihydropyrimido[4,5-d]pyrimidin-3(2H)-yl)-4-methylphenyl)-3-(trifluoromethyl)benzamide], which logFC ([1]; CDK11A (Q9UQ88-1)) is on record?
The logFC was −0.868.

What about the “logFC of CDK11A (Q9UQ88-1)” value [1] of the same molecule?
Its value is −0.868.

What about the logFC ([2]; experiment wp045) of the same molecule?
The logFC was −1.296.

And the logFC ([2]; experiment wp103)?
The logFC was −0.6848.

And the logFC ([2]; experiment wp107)?
Its logFC is −1.024.

And the logFC ([2]; experiment wp117)?
Its logFC is −1.027.

And the logFC ([2]; experiment wp152)?
Its logFC is −1.147.

What about the logFC ([2]; experiment wp160, 4 hr) of the same molecule?
Its logFC is −0.5025.

What about the logFC ([2]; experiment wp160, 8 hr) of the same molecule?
Its logFC is −0.8848.

With `C=CCn1c(=O)c2cnc(Nc3ccc(N4CCN(CCCNc5cccc6c5C(=O)N(C5CCC(=O)NC5=O)C6=O)CC4)cc3)nc2n1-c1cccc(C(C)(C)O)n1` (stereo not drawn) [ZNL.02.096] as the molecule, how does the “logFC PRKCI (P41743)” value ([3]; direction of change down) read?
Its value is −0.5365.

And the “logFC PRKCI” value ([3]; protein PRKCI (P41743), down)?
The value was −0.5365.

With `CC(C)S(=O)(=O)c1ccccc1Nc1nc(Nc2ccc(N3CCN(CCOCCOCCNC(=O)CNc4cccc5c4C(=O)N(C4CCC(=O)NC4=O)C5=O)CC3)cc2)ncc1Cl` (stereo not drawn) [TL12.186] as the molecule, how does the “logFC HASPIN (Q8TF76-1)” value ([4]; direction of change down) read?
The value was −0.368.

What about the “logFC HASPIN” value ([4]; protein HASPIN (QSTF76-1), down) of the same molecule?
The value was −0.368.

With `Cc1ncsc1-c1ccc([C@H](C)NC(=O)[C@@H]2C[C@@H](O)CN2C(=O)[C@@H](NC(=O)CCCCCN2CCN(c3ccc(Nc4ncc5scc(-c6cccc(NS(C)(=O)=O)c6)c5n4)cc3)CC2)C(C)(C)C)cc1` [RSS0680, (2S,4R)-1-((S)-3,3-Dimethyl-2-(6-(4-(4-((7-(3-(methylsulfonamido)phenyl)thieno[3,2-d]pyrimidin-2-yl)amino)phenyl)piperazin-1-yl)hexanamido)butanoyl)-4-hydroxy-N—((S)-1-(4-(4-methylthiazol-5yl)phenyl)ethyl)pyrrolidine-2-carboxamide] as the molecule, how does the “logFC MAPKAPK5 (Q8IW41)” value ([5]; direction of change down) read?
Its value is −0.3355.

What about the “logFC MAPKAPK5” value ([5]; protein MAPKAPK5 (Q8IW41), down) of the same molecule?
The value was −0.3355.

For `O=C1CCC(N2C(=O)c3cccc(NCCCCCCCCN4CCC(NC(=O)c5[nH]ncc5NC(=O)c5c(Cl)cccc5Cl)CC4)c3C2=O)C(=O)N1` (stereo not drawn) [MFH.5.126.1], which “logFC PIK3CG (P48736)” value ([6]; Experiment wp076, direction of change down) is on record?
Its value is −0.3735.

And the logFC ([6]; PIK3CG (P48736), experiment wp076)?
Its logFC is −0.3735.

Which results are given for `CC(C)S(=O)(=O)c1ccccc1Nc1nc(Nc2ccc(N3CCN(CCOCCNC(=O)CNc4cccc5c4C(=O)N(C4CCC(=O)NC4=O)C5=O)CC3)cc2)ncc1Cl` (stereo not drawn) [SK.3.91]?
logFC HIPK1 (Q86Z02) ([7]; direction of change down): −0.4009; logFC HIPK1 ([7]; protein HIPK1 (Q86Z02), down): −0.4009; logFC TRIB3 (Q96RU7) [8, 13]: −1.211; logFC TRIB3 ([8]; protein TRIB3 (Q96RU7), experiment wp114, down): −1.211; logFC of PRKAA1 (Q13131) ([9]; Experiment wp160, 2 hr): −0.3284; logFC PRKAA1 (Q13131) ([9]; Experiment wp160, 2 hr): −0.3284; logFC PRKAA1 (Q13131) ([9]; Experiment wp160, 4 hr): −0.6117; logFC of PRKAA1 (Q13131) ([9]; Experiment wp172): −0.4542; logFC PRKAA1 (Q13131) ([9]; Experiment wp172): −0.4542; logFC of PRKAA1 (Q13131) ([9]; experiment wp160, 4 hr): −0.6117; logFC TRPM7 (Q96QT4) ([10]; direction of change down): −0.3241; logFC TRPM7 ([10]; protein TRPM7 (Q96QT4), down): −0.3241; logFC STK32C (Q86UX6) [11, 13]: −0.6189; logFC STK32C ([11]; protein STK32C (Q86UX6), experiment wp114, down): −0.6189

`Cn1c(=O)c(-c2c(Cl)cccc2Cl)cc2cnc(Nc3ccc(OCCNC(=O)CCCCCCNC(=O)COc4cccc5c4C(=O)N(C4CCC(=O)NC4=O)C5=O)cc3)nc21` (stereo not drawn) [SB1.G.192.1] was tested. Which “logFC PKMYT1 (Q99640)” value ([12]; direction of change down) did it give?
The value was −0.7301.

And the “logFC PKMYT1” value ([12]; protein PKMYT1 (Q99640), down)?
Its value is −0.7301.
